{
  "source": "patent US20170239323A1",
  "about": "“ORITAVANCIN FORMULATIONS” (The Medicines Company, priority 2016, published 2017)",
  "assay": "pH adjustment of oritavancin/HPCD solution with 1N NaOH: visual observations",
  "type": "physicochemical",
  "settings": "for Observations: 20% w/v HPCD reconstitution (3 mL aliquot)",
  "protocol": "Reconstituting Orbactiv 400 mg (Oritavancin) in 20% w/v HPCD, diluting in saline then adjusting pH. The 50 mg/mL solution of oritavancin in 20% w/v HPCD (described in Table 3) was further diluted in 0.9% saline to 6 mg/mL in a small glass vial. The pH was adjusted using 1N NaOH. NaOH was added to the oritavancin solution in […] and vortexed. Visual observations and pH were recorded (Table 5).\nReconstituting Orbactiv 400 mg (Oritavancin) in 50% w/v HPCD aqueous solution, adjusting pH then diluting in saline. 6.269 g of HPCD was dissolved in 12.538 mL of water to make a 50% w/v solution (pH=7.23). Seven (7) mL of the 50% w/v solution was added to a 400 mg vial of Orbactiv for a target oritavancin concentration of 57.14 mg/mL. […] A 2 mL aliquot of 57.14 mg/mL was removed from the vial and placed in a small glass vial. The pH was adjusted to 6.5 using 1N NaOH. NaOH was added to the oritavancin solution in 5 μL increments and vortexed. Visual observations and pH were recorded (Table 6).\n(§1) Reconstituting Orbactiv 400 mg (Oritavancin) in 50% w/v aqueous HPCD, adjusting pH then diluting in saline. 6.112 g of HPCD was dissolved in 12.224 mL of water to make a 50% w/v solution (pH=6.74). Seven (7) mL of the 50% w/v HPCD solution was added to a 400 mg vial of Orbactiv for a target oritavancin concentration of 57.14 mg/mL. […] A 3 mL aliquot of 57.14 mg/mL was removed from the vial and placed in a small glass vial. The pH was adjusted to 7 using 1N NaOH. NaOH was added to the oritavancin solution in 5 μL increments and vortexed. Visual observations and pH were recorded (Table 8).\nas §1, with “20%” for “50%”, “3.555” for “6.112”, “17.775” for “12.224”, “(pH=6.88).” for “(pH=6.74).”, “recorded.” for “recorded”, “10).” for “8).”",
  "data": [
    {"smiles": "CN[C@H](CC(C)C)C(=O)N[C@H]1C(=O)N[C@@H](CC(N)=O)C(=O)N[C@H]2C(=O)N[C@H]3C(=O)N[C@H](C(=O)N[C@H](C(=O)O)c4cc(O)cc(O)c4-c4cc3ccc4O)[C@H](O[C@H]3C[C@](C)(N)[C@@H](O)[C@H](C)O3)c3ccc(c(Cl)c3)Oc3cc2cc(c3O[C@@H]2O[C@H](CO)[C@@H](O)[C@H](O)[C@H]2O[C@H]2C[C@](C)(NCc3ccc(-c4ccc(Cl)cc4)cc3)[C@@H](O)[C@H](C)O2)Oc2ccc(cc2Cl)[C@H]1O", "note": "[Oritavancin]", "values": [
      {"measurement": "pH to which solution could be adjusted without any sign of precipitation", "setting": "57 mg/mL in 20% w/v aqueous HPCD, over 24 hours", "result": 7},
      {"measurement": "pH to which solution could be adjusted without any sign of precipitation", "setting": "57 mg/mL in 50% w/v aqueous HPCD, over 24 hours", "result": 7},
      {"measurement": "pH to which solution could be adjusted without any sign of precipitation", "setting": "57 mg/mL in 50% w/v aqueous HPCD, over an hour", "result": 6.3},
      {"measurement": "Observations", "setting": "1N NaOH 0 μL, pH 3.95, oritavancin 57.14 mg/mL", "result": "Clear, colorless solution."},
      {"measurement": "Observations", "setting": "1N NaOH 5 μL, pH 4.11, oritavancin 57.04 mg/mL", "result": "Clear, colorless solution"},
      {"measurement": "Observations", "setting": "1N NaOH 10 μL, pH 4.31, oritavancin 56.94 mg/mL", "result": "Clear, colorless solution"},
      {"measurement": "Observations", "setting": "1N NaOH 15 μL, pH 4.68, oritavancin 56.84 mg/mL", "result": "Clear, colorless solution"},
      {"measurement": "Observations", "setting": "1N NaOH 20 μL, pH 4.89, oritavancin 56.74 mg/mL", "result": "Clear, colorless solution"},
      {"measurement": "Observations", "setting": "1N NaOH 25 μL, pH 5.19, oritavancin 56.64 mg/mL", "result": "Clear, colorless solution"},
      {"measurement": "Observations", "setting": "1N NaOH 30 μL, pH 5.29, oritavancin 56.54 mg/mL", "result": "Clear, colorless solution"},
      {"measurement": "Observations", "setting": "1N NaOH 35 μL, pH 5.45, oritavancin 56.44 mg/mL", "result": "Clear, colorless solution."},
      {"measurement": "Observations", "setting": "1N NaOH 40 μL, pH 5.57, oritavancin 56.34 mg/mL", "result": "Clear, colorless solution"},
      {"measurement": "Observations", "setting": "1N NaOH 45 μL, pH 5.63, oritavancin 56.23 mg/mL", "result": "Clear, colorless solution"},
      {"measurement": "Observations", "setting": "1N NaOH 50 μL, pH 5.69, oritavancin 56.13 mg/mL", "result": "Clear, colorless solution"},
      {"measurement": "Observations", "setting": "1N NaOH 55 μL, pH 5.82, oritavancin 56.03 mg/mL", "result": "Clear, colorless solution"},
      {"measurement": "Observations", "setting": "1N NaOH 60 μL, pH 5.87, oritavancin 55.92 mg/mL", "result": "Clear, colorless solution"},
      {"measurement": "Observations", "setting": "1N NaOH 65 μL, pH 5.95, oritavancin 55.82 mg/mL", "result": "Clear, colorless solution."},
      {"measurement": "Observations", "setting": "1N NaOH 70 μL, pH 6.01, oritavancin 55.71 mg/mL", "result": "Clear, colorless solution"},
      {"measurement": "Observations", "setting": "1N NaOH 75 μL, pH 6.06, oritavancin 56.60 mg/mL", "result": "Clear, colorless solution"},
      {"measurement": "Observations", "setting": "1N NaOH 80 μL, pH 6.10, oritavancin 55.49 mg/mL", "result": "Clear, colorless solution"},
      {"measurement": "Observations", "setting": "1N NaOH 85 μL, pH 6.18, oritavancin 55.38 mg/mL", "result": "Clear, colorless solution"},
      {"measurement": "Observations", "setting": "1N NaOH 90 μL, pH 6.20, oritavancin 55.28 mg/mL", "result": "Clear, colorless solution"},
      {"measurement": "Observations", "setting": "1N NaOH 95 μL, pH 6.24, oritavancin 55.17 mg/mL", "result": "Clear, colorless solution"},
      {"measurement": "Observations", "setting": "1N NaOH 100 μL, pH 6.28, oritavancin 55.06 mg/mL", "result": "Clear, colorless solution"},
      {"measurement": "Observations", "setting": "1N NaOH 105 μL, pH 6.34, oritavancin 54.95 mg/mL", "result": "Clear, colorless solution"},
      {"measurement": "Observations", "setting": "1N NaOH 110 μL, pH 6.38, oritavancin 54.85 mg/mL", "result": "Clear, colorless solution"},
      {"measurement": "Observations", "setting": "1N NaOH 115 μL, pH 6.44, oritavancin 54.74 mg/mL", "result": "Clear, colorless solution"},
      {"measurement": "Observations", "setting": "1N NaOH 120 μL, pH 6.49, oritavancin 54.64 mg/mL", "result": "Clear, colorless solution."},
      {"measurement": "Observations", "setting": "1N NaOH 125 μL, pH 6.52, oritavancin 54.52 mg/mL", "result": "Clear, colorless solution"},
      {"measurement": "Observations", "setting": "1N NaOH 130 μL, pH 6.54, oritavancin 54.41 mg/mL", "result": "Clear, colorless solution"},
      {"measurement": "Observations", "setting": "1N NaOH 135 μL, pH 6.57, oritavancin 54.30 mg/mL", "result": "Clear, colorless solution"},
      {"measurement": "Observations", "setting": "1N NaOH 140 μL, pH 6.62, oritavancin 54.19 mg/mL", "result": "Clear, colorless solution"},
      {"measurement": "Observations", "setting": "1N NaOH 145 μL, pH 6.65, oritavancin 54.09 mg/mL", "result": "Clear, colorless solution"},
      {"measurement": "Observations", "setting": "1N NaOH 150 μL, pH 6.69, oritavancin 53.97 mg/mL", "result": "Clear, colorless solution"},
      {"measurement": "Observations", "setting": "1N NaOH 155 μL, pH 6.72, oritavancin 53.86 mg/mL", "result": "Clear, colorless solution"},
      {"measurement": "Observations", "setting": "1N NaOH 160 μL, pH 6.76, oritavancin 53.75 mg/mL", "result": "Clear, colorless solution."},
      {"measurement": "Observations", "setting": "1N NaOH 165 μL, pH 6.80, oritavancin 53.63 mg/mL", "result": "Clear, colorless solution"},
      {"measurement": "Observations", "setting": "1N NaOH 170 μL, pH 6.82, oritavancin 53.51 mg/mL", "result": "Clear, colorless solution"},
      {"measurement": "Observations", "setting": "1N NaOH 175 μL, pH 6.86, oritavancin 53.40 mg/mL", "result": "Clear, colorless solution"},
      {"measurement": "Observations", "setting": "1N NaOH 180 μL, pH 6.90, oritavancin 53.28 mg/mL", "result": "Clear, colorless solution"},
      {"measurement": "Observations", "setting": "1N NaOH 185 μL, pH 6.93, oritavancin 53.17 mg/mL", "result": "Clear, colorless solution"},
      {"measurement": "Observations", "setting": "1N NaOH 190 μL, pH 6.98, oritavancin 53.05 mg/mL", "result": "Clear, colorless solution"},
      {"measurement": "Observations", "setting": "1N NaOH 195 μL, pH 7.03, oritavancin 52.94 mg/mL", "result": "Clear, colorless solution."}
    ]}
  ]
}
